Laboratory results published in US20230355599A1, “BIOMARKERS FOR CBL, AND COMPOSITIONS AND METHODS FOR THEIR USE” (NURIX THERAPEUTICS, INC., priority 2022, published 2023).

What was measured:
A20 lymphoma tumor model = test: A20 lymphoma tumor model, anti-tumor activity; assay type: in vivo, mouse; settings: dosed at 10, 30 or 60 mg/kg
Excerpt: An elevated percentage of pHS1+CD8+ T cells correlated with potent anti-tumor effects in mouse syngeneic tumor models and defined a biomarker therapeutic range. At this therapeutic range, approximately 50% proximal biomarker pHS1 correlates with the efficacious range.

pY525/pY526/pY348-SYK = test: Phosphoprotein screen in human whole blood with CBL inhibitor at 10 uM: SYK; assay type: cell-based; settings: 1 hr 37° C., human whole blood 8 donors, anti-CD3/CD28 + crosslinker 60 minutes
Protocol: (§1) To identify proximal biomarkers of CBL-B inhibition in immune cells, a panel of phosphorylated proteins were screened in human whole blood incubated with CBL-B inhibitor and concomitant anti-CD3 and anti-CD28 antibodies. The effect of CBL-B inhibition was assessed across multiple cellular signaling networks.
(§2) Human heparinized whole blood from 8 donors was received after an overnight shipment at 4° C. The blood was plated, treated with CBL inhibitor at 10 uM and incubated at 37° C. for 60 minutes. After incubation, the cells were stimulated with anti-CD3/CD28 followed by a cross-linking antibody (30 μg of goat anti-mouse IgG (H+L) antibody (Invitrogen)). After 60 minutes, the cells were fixed, and stained using surface markers for T cells (CD3^+CD4^+& CD3^+CD8^+) and analyzed by flow cytometry for target phosphorylation of the following markers: pY180/pY511-ITK, pY397-HS1, pY759-PLCg2, pY783-PLCg1, pY525/pY526/pY348-SYK & pY319-Zap70.
(§3) Fold change of each biomarker was calculated with the following example equation: […]
(§4) Whole blood from eight human donors was collected in sodium heparin anti-coagulant treated with 10 μM of Compound 23 for 1 hr at 37° C. […] Fold change of % phosphorylation normalized to DMSO was quantitated in T cells (CD8^+) using flow cytometry is provided in FIGS. 6A-6B.

phosphorylated PLCγ2 = test: Phosphorylated PLCγ2 in human CD8+ T cells from whole blood in vitro (flow cytometry); assay type: cell-based; settings: T-cell, whole blood from six human donors, 2 hrs 37° C., anti-CD3/anti-CD28 + crosslinker 60 minutes, read-out: Average mean EC50±standard deviation, phosphorylated PLCγ2
Protocol: To assess these candidate clinical proximal biomarkers of Cbl-b inhibition on T cells, pharmacodynamic analysis was performed. Whole blood was obtained from human donors and incubated with increasing concentrations of Compound 23. The response to Cbl-b inhibition on phosphorylated HS1, PLCγ2, and ZAP70 was measured in CD8^+ T cells using flow cytometry. This technique is highly quantitative and can measure multiple phosphorylation markers in different cell populations within the same sample.
For pharmacodynamic analysis, whole blood was obtained from six human donors (BioIVT) and used for flow cytometry assays to evaluate phosphorylated biomarkers HS1, PLCγ2, and ZAP70 in CD8^+ T cells.
Whole blood was collected in a collection tube coated with sodium heparin. […]
Stained cells were run on an Attune NxT Acoustic Focusing Flow Cytometer (Thermo Fisher, cat. No. A29004), and data was analyzed using FlowJo (v10.6.1) and GraphPad Prism (v8.00) software. Single lymphocytes were gated for CD8^+ cells (CD45^+/CD8^+) cells, and population frequencies were calculated for each population. The data is quantified by the percent positive. […] As protein becomes phosphorylated the fluorescence increases resulting in a larger fraction of the cells entering that gate. Each population was evaluated for % positive pY759-PLCγ2, pY397-HS1 levels, pY319/Syk (Y352)-ZAP70 levels.

pY319-Zap70 = test: Phosphoprotein screen in human whole blood with CBL inhibitor at 10 uM: ZAP70; assay type: cell-based; settings: 1 hr 37° C., human whole blood 8 donors, anti-CD3/CD28 + crosslinker 60 minutes
Protocol: as §1, §2, §3, §4

**Q.** Which results are given for C[C@H]1CCCN(Cc2cc3c(c(C(F)(F)F)c2)CN(c2cccc([C@]4(c5nncn5C)C[C@@H](C)C4)c2)C3=O)C1 [Compound 23]?
**A.** median survival time compared to the vehicle control (A20 lymphoma tumor model): prolonged median survival time; tumor size compared to the vehicle control (A20 lymphoma tumor model): significantly smaller tumors; increased phosphorylation of SYK compared to DMSO control (pY525/pY526/pY348-SYK): 2-3 fold; EC50 (phosphorylated PLCγ2): 74 ± 4.95 nM; increased phosphorylation of ZAP70 compared to DMSO control (pY319-Zap70): 2-3 fold
